Source: patent US12660819B2, “Herbicidal derivatives” (SYNGENTA CROP PROTECTION AG, priority 2020, dated 2026)

Experiments:
Type in all cases: in vivo
[1] = system: Echinochloa crus-galli (ECHCG); assay: Pre-emergence Test (glasshouse, percentage damage to the plant); settings: 1000 g/ha unless otherwise stated, five-point scale
[2] = system: Ipomoea hederacea (IPOHE); assay: Post-emergence Test (glasshouse, percentage damage to the plant); settings: post-emergence spray, 1000 g/ha unless otherwise stated, evaluated after 13 days
In short: (§1)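 Scored 13 days after spraying as percentage plant damage in five bands (5=81–100%, 4=61–80%, 3=41–60%, 2=21–40%, 1=0–20%). Spray at 1000 g/ha unless stated, in acetone/water 50:50 plus 0.5% Tween 20, onto sown glasshouse pots (24/16 °C, 14 h light, 65% humidity).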

[3] = system: Abutilon theophrasti (ABUTH); assay: as above; settings: post-emergence spray, 1000 g/ha unless otherwise stated, evaluated after 13 days
In short: as §1

Setaria faberi (SETFA) [4] = assay: as above; settings: post-emergence spray, 1000 g/ha unless otherwise stated, evaluated after 13 days
In short: as §1

[5] = system: Amaranthus retoflexus (AMARE); assay: as above; settings: post-emergence spray, 1000 g/ha unless otherwise stated, evaluated after 13 days
In short: as §1

Zea mays (ZEAMX) [6] = assay: as above; settings: post-emergence spray, 1000 g/ha unless otherwise stated, evaluated after 13 days
In short: as §1

[7] = system: Echinochloa crus-galli (ECHCG); assay: as above; settings: post-emergence spray, 1000 g/ha unless otherwise stated, evaluated after 13 days
In short: as §1

[8] = system: Ipomoea hederacea (IPOHE); assay: Pre-emergence Test (glasshouse, percentage damage to the plant); settings: 1000 g/ha unless otherwise stated, five-point scale
Setaria faberi (SETFA) [9] = assay: as above; settings: 1000 g/ha unless otherwise stated, five-point scale
[10] = system: Amaranthus retoflexus (AMARE); assay: as above; settings: 1000 g/ha unless otherwise stated, five-point scale
[11] = system: Abutilon theophrasti (ABUTH); assay: as above; settings: 1000 g/ha unless otherwise stated, five-point scale
Zea mays (ZEAMX) [12] = assay: as above; settings: 1000 g/ha unless otherwise stated, five-point scale

SMILES	percentage damage to the plant, ECHCG [1]	Post-emergence Test IPOHE, percentage damage to the plant (five-point scale) [2]	Post-emergence Test ABUTH, percentage damage to the plant (five-point scale) [3]	Post-emergence Test SETFA, percentage damage to the plant (five-point scale) (Setaria faberi (SETFA) [4])	Post-emergence Test AMARE, percentage damage to the plant (five-point scale) [5]	Post-emergence Test ZEAMX, percentage damage to the plant (five-point scale) (Zea mays (ZEAMX) [6])	Post-emergence Test ECHCG, percentage damage to the plant (five-point scale) [7]	percentage damage to the plant, IPOHE [8]	percentage damage to the plant, SETFA (Setaria faberi (SETFA) [9])	percentage damage to the plant, AMARE [10]	percentage damage to the plant, ABUTH [11]	percentage damage to the plant, ZEAMX (Zea mays (ZEAMX) [12])
CCn1c(C)c(-c2cncc(F)c2)c(=O)c(C(=O)O)c1-c1ccc(Cl)c(Cl)c1 [Compound 85, 2-(3,4-dichlorophenyl)-1-ethyl-5-(5-fluoro-3-pyridyl)-6-methyl-4-oxo-pyridine-3-carboxylic acid]	1 (1=0-20%)	1 (1=0-20%)	3 (3=41-60%)	3 (3=41-60%)	1 (1=0-20%)	1 (1=0-20%)	1 (1=0-20%)	1 (1=0-20%)	4 (4=61-80%)	1 (1=0-20%)	2 (2=21-40%)	1 (1=0-20%)
CCn1c(C)c(-c2cc(C)cs2)c(=O)c(C(=O)O)c1-c1ccc(Cl)c(Cl)c1 [Compound 86, 2-(3,4-dichlorophenyl)-1-ethyl-6-methyl-5-(4-methyl-2-thienyl)-4-oxo-pyridine-3-carboxylic acid]	3 (3=41-60%)	3 (3=41-60%)	4 (4=61-80%)	4 (4=61-80%)	4 (4=61-80%)	1 (1=0-20%)	3 (3=41-60%)	1 (1=0-20%)	5 (5=81-100%)	4 (4=61-80%)	2 (2=21-40%)	1 (1=0-20%)
CCn1c(C)c(-c2cc(Cl)c(OC)c(OC)c2)c(=O)c(C(=O)O)c1-c1ccc(Cl)c(Cl)c1 [Compound 87, 5-(3-chloro-4,5-dimethoxy-phenyl)-2-(3,4-dichlorophenyl)-1-ethyl-6-methyl-4-oxo-pyridine-3-carboxylic acid]	1 (1=0-20%)	2 (2=21-40%)	3 (3=41-60%)	3 (3=41-60%)	2 (2=21-40%)	1 (1=0-20%)	2 (2=21-40%)	1 (1=0-20%)	4 (4=61-80%)	1 (1=0-20%)	1 (1=0-20%)	1 (1=0-20%)
CCOc1cc(-c2c(C)n(CC)c(-c3ccc(Cl)c(Cl)c3)c(C(=O)O)c2=O)cc(C(F)(F)F)c1 [Compound 88, 2-(3,4-dichlorophenyl)-5-[3-ethoxy-5-(trifluoromethyl)phenyl]-1-ethyl-6-methyl-4-oxo-pyridine-3-carboxylic acid]	1 (1=0-20%)	1 (1=0-20%)	2 (2=21-40%)	2 (2=21-40%)	2 (2=21-40%)	1 (1=0-20%)	2 (2=21-40%)	1 (1=0-20%)	4 (4=61-80%)	1 (1=0-20%)	1 (1=0-20%)	1 (1=0-20%)
CCc1ccc(-c2c(C)n(CC)c(-c3ccc(Cl)c(Cl)c3)c(C(=O)O)c2=O)cc1 [Compound 89, 2-(3,4-dichlorophenyl)-1-ethyl-5-(4-ethylphenyl)-6-methyl-4-oxo-pyridine-3-carboxylic acid]	1 (1=0-20%)	3 (3=41-60%)	3 (3=41-60%)	1 (1=0-20%)	1 (1=0-20%)	1 (1=0-20%)	1 (1=0-20%)	1 (1=0-20%)	4 (4=61-80%)	1 (1=0-20%)	1 (1=0-20%)	1 (1=0-20%)
CCn1c(C)c(-c2ccc(C(C)=O)cc2)c(=O)c(C(=O)O)c1-c1ccc(Cl)c(Cl)c1 [Compound 90, 5-(4-acetylphenyl)-2-(3,4-dichlorophenyl)-1-ethyl-6-methyl-4-oxo-pyridine-3-carboxylic acid]	1 (1=0-20%)	2 (2=21-40%)	1 (1=0-20%)	2 (2=21-40%)	1 (1=0-20%)	1 (1=0-20%)	1 (1=0-20%)	1 (1=0-20%)	3 (3=41-60%)	1 (1=0-20%)	1 (1=0-20%)	1 (1=0-20%)
